Counter-ions that a name gives are not always drawn.

Consider 16 compounds from patent US8975250B2, “5 oxo-5,8-dihydropyrido[2,3-d]pyrimidine derivatives as CaMKII kinase inhibitors for treating cardiovascular diseases” (SANOFI, priority 2010, dated 2015).

One may read the melting point as the temperature of the solid-liquid transition. Take `CCN1CCN(c2cc(F)c(Nc3ncc4c(=O)c(C(N)=O)c(N)n(CC)c4n3)c(OC)c2)CC1` (as salt: HCl) [compound 28, 7-Amino-8-ethyl-2-[4-(4-ethylpiperazin-1-yl)-2-fluoro-6-methoxyphenylamino]-5-oxo-5,8-dihydropyrido[2,3-d]pyrimidine-6-carboxamide]: the melting point is > 260 °C. Compound `CCn1c(N)c(C(N)=O)c(=O)c2cnc(Nc3ccc(C4CCN(C5CC5)CC4)cc3OC)nc21` (as salt: HCl) [compound 29, 7-Amino-2-[4-(1-cyclopropylpiperid-4-yl)-2-methoxyphenylamino]-8-ethyl-5-oxo-5,8-dihydropyrido[2,3-d]pyrimidine-6-carboxamide] yielded a melting point of 226 to 228 °C.

In turn, `CCn1c(N)c(C(N)=O)c(=O)c2cnc(Nc3ccc(N4CCN(C5CC5)CC4)cc3OC(F)F)nc21` (as salt: HCl) [compound 33, 7-Amino-2-[4-(4-cyclopropylpiperazin-1-yl)-2-difluoromethoxyphenylamino]-8-ethyl-5-oxo-5,8-dihydropyrido[2,3-d]pyrimidine-6-carboxamide] came in with a melting point of 204 to 206 °C. With `CCn1c(N)c(C(N)=O)c(=O)c2cnc(Nc3ccc(C4CCN(CCC(F)(F)F)CC4)cc3OC)nc21` (as salt: HCl) [compound 35, 7-Amino-8-ethyl-2-{2-methoxy-4-[1-(3,3,3-trifluoropropyl)piperid-4-yl]phenylamino}-5-oxo-5,8-dihydropyrido[2,3-d]pyrimidine-6-carboxamide] the figure was 199 °C; with `CCn1c(N)c(C(N)=O)c(=O)c2cnc(Nc3ccc(CCN4CCCCC4)cc3)nc21` (as salt: HCl) [compound 65, 7-Amino-8-ethyl-5-oxo-2-[4-(2-piperid-1-ylethyl)phenylamino]-5,8-dihydropyrido[2,3-d]pyrimidine-6-carboxamide], 216 °C. As for `NCCCn1c(N)c(C(N)=O)c(=O)c2cnc(Nc3ccc(N4CCOCC4)cc3)nc21` (as salt: HCl) [compound 81, 7-Amino-8-(3-aminopropyl)-2-(4-morpholin-4-ylphenylamino)-5-oxo-5,8-dihydropyrido[2,3-d]pyrimidine-6-carboxamide], the melting point worked out at 250 °C. With `COc1cc(C2CCNCC2)ccc1Nc1ncc2c(=O)c(C(N)=O)c(N)n(-c3ccccc3)c2n1` (as salt: HCl) [compound 113, 7-Amino-2-(2-methoxy-4-piperid-4-ylphenylamino)-5-oxo-8-phenyl-5,8-dihydropyrido[2,3-d]pyrimidine-6-carboxamide] the figure was 228 °C (dec.); with `CCN1CCN(c2ccc(Nc3ncc4c(=O)c(C(N)=O)c(N)n(CC(C)(C)O)c4n3)c(OC)c2)CC1` (as salt: HCl) [compound 129, 7-Amino-2-[4-(4-ethylpiperazin-1-yl)-2-methoxyphenylamino]-8-(2-hydroxy-2-methylpropyl)-5-oxo-5,8-dihydropyrido[2,3-d]pyrimidine-6-carboxamide], 222 °C (dec.).

Consider `COc1cc(C2CCN(CCC(F)(F)F)CC2)ccc1Nc1ncc2c(=O)c(C(N)=O)c(N)n(CC(C)(C)O)c2n1` (as salt: HCl) [compound 130, 7-Amino-8-(2-hydroxy-2-methylpropyl)-2-{2-methoxy-4-[1-(3,3,3-trifluoropropyl)piperid-4-yl]phenylamino}-5-oxo-5,8-dihydropyrido[2,3-d]pyrimidine-6-carboxamide], for which the melting point is > 260 °C. For `COCCN1CCC(c2ccc(Nc3ncc4c(=O)c(C(N)=O)c(N)n(CC(C)(C)O)c4n3)c(OC)c2)CC1` (as salt: HCl) [compound 133, 7-Amino-8-(2-hydroxy-2-methylpropyl)-2-{2-methoxy-4-[1-(2-methoxyethyl)piperid-4-yl]phenylamino}-5-oxo-5,8-dihydropyrido[2,3-d]pyrimidine-6-carboxamide], the melting point is 170 °C (dec.). Take `COc1cc(C2CCN(C)CC2)ccc1Nc1ncc2c(=O)c(C(N)=O)c(N)n(-c3ccccc3)c2n1` (as salt: HCl) [compound 134, 7-Amino-2-[2-methoxy-4-(1-methylpiperid-4-yl)phenylamino]-5-oxo-8-phenyl-5,8-dihydropyrido[2,3-d]pyrimidine-6-carboxamide]: the melting point was 256 °C (dec.).

`CCn1c(N)c(C(N)=O)c(=O)c2cnc(Nc3ccc([C@@H]4C[C@H]4N(C)C)cc3)nc21` (racemic) (as salt: HCl) [compound 97, (±)-7-Amino-2-trans-[4-(2-dimethylaminocyclopropyl)phenylamino]-8-ethyl-5-oxo-5,8-dihydropyrido[2,3-d]pyrimidine-6-carboxamide]: the melting point was 208 to 210 °C (dec.). As for `CCn1c(N)c(C(N)=O)c(=O)c2cnc(Nc3ccc(O)cc3)nc21` [compound 1, 7-Amino-8-ethyl-2-(4-hydroxyphenylamino)-5-oxo-5,8-dihydropyrido[2,3-d]pyrimidine-6-carboxamide], the melting point was > 260 °C. In the case of `NC(=O)c1c(N)n(C2CCCC2)c2nc(Nc3ccc(N4CCOCC4)cc3)ncc2c1=O` [compound 8, 7-Amino-8-cyclopentyl-2-(4-morpholin-4-ylphenylamino)-5-oxo-5,8-dihydropyrido[2,3-d]pyrimidine-6-carboxamide] it was 265 °C; in that of `CCn1c(N)c(C(N)=O)c(=O)c2cnc(Nc3cccc(N4CCOCC4)c3)nc21` [compound 17, 7-Amino-8-ethyl-2-(3-morpholin-4-ylphenylamino)-5-oxo-5,8-dihydropyrido[2,3-d]pyrimidine-6-carboxamide], 195 °C; in that of `CCn1c(N)c(C(N)=O)c(=O)c2cnc(Nc3ccc(CCO)cc3)nc21` [compound 55, 7-Amino-8-ethyl-2-[4-(2-hydroxyethyl)phenylamino]-5-oxo-5,8-dihydropyrido[2,3-d]pyrimidine-6-carboxamide], 289 °C.
